Patent US12606572B2, “Substituted heterocycles and uses thereof” (Kumquat Biosciences Inc., priority 2023, dated 2026)

Legend:
KRAS G12S = target: T1, KRAS G12S (Homo sapiens, UniProt P01116, G12S); assay: HTRF assay, interaction of GST-tagged K-Ras with His-tagged hSOS1 (KRAS G12S); assay type: biochemical; settings: <500 nM, read-out: Inhibition of KRAS G12S (IC50)
T1 construct: made in house; host or cells: E. coli BL21 (DE3)
Excerpt: (§1) This assay can be also used to assess a selective inhibition or reduction of signaling output of a mutant Ras protein relative to a wildtype, or relative to a different mutant Ras protein. For example, the equilibrium interaction of wildtype KRAS or K-Ras mutant (e.g., wildtype or a mutant thereof) with SOS1 (e.g., hSOS1) can be assessed as a proxy or an indication for the ability of a subject compound to bind and inhibit Ras protein. The HTRF assay detects from (i) a fluorescence resonance energy transfer (FRET) donor (e.g., antiGST-Europium) that is bound to GST-tagged K-Ras mutant to (ii) a FRET acceptor (e.g., anti-6His-XL665) bound to a His-tagged hSOS1.
(§2) The assay buffer can contain ˜5 mM HEPES pH 7.4, ˜150 mM NaCl, ˜1 mM DTT, 0.05% BSA and 0.0025% (v/v) Igepal. A Ras working solution is prepared in an assay buffer containing typically a suitable amount of the protein construct (e.g., GST-tagged K-Ras mutant) and the FRET donor (e.g., antiGST-Eu(K) from Cisbio, France). A SOS1 working solution is prepared in an assay buffer containing suitable amount of the protein construct (e.g., His-hSOS1) and the FRET acceptor (e.g., anti-6His-XL665 from Cisbio, France). A suitable amount of the protein construct will depend on the range of activity or range of IC50 values being detected or under investigation. For detecting an IC50 within a range of 500 nM, the protein constructs of the same range of molarity can be utilized.
(§3) A fixed volume of DMSO with or without test compound is transferred into a 384-well plate. Ras working solution is added to all wells of the test plate. SOS1 working solution is added to all wells except for those that are subsequently filled with inhibitor control solution. Upon incubation for about 10 minutes or longer, the fluorescence is measured with a M1000Pro plate reader (Tecan) using HTRF detection (excitation 337 nm, emission 1: 620 nm, emission 2: 665 nm). Compounds are tested in duplicate at different concentrations (for example, 10 μM, 2.5 μM, 0.63 μM, 0.16 μM, 0.04 μM, 0.01 μM test compound). The ratiometric data (i.e., emission 2 divided by emission 1) is used to calculate IC50 values against Ras using GraphPad Prism (GraphPad software). Signaling output measured in terms of IC50 values can be obtained and a ratio of IC50 against one mutant relative to another mutant can be calculated. For instance, a selective reduction of K-Ras G12S signaling output can be evidenced by a ratio greater than one. In particular, a selective reduction of K-Ras G12S signaling relative to K-Ras WT signaling is evidenced if the ratio of IC50 (against K-Ras WT) to IC50 (against K-Ras G12S) is greater than 1.

KRAS WT = target: T2, KRAS WT (Homo sapiens, UniProt P01116); assay: HTRF assay, interaction of GST-tagged K-Ras with His-tagged hSOS1 (KRAS wildtype); assay type: biochemical; settings: <500 nM, read-out: Inhibition of KRAS WT (IC50)
T2 construct: made in house; host or cells: E. coli BL21 (DE3)
Excerpt: as §1, §2, §3

T2 sequence (P01116 1-188 isoform P01116-2): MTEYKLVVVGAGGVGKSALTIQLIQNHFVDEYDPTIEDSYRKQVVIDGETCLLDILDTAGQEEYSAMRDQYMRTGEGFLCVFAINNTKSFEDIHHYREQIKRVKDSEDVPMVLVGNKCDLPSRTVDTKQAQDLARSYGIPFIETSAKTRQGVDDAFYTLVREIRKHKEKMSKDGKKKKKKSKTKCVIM
T1 sequence (P01116 1-188 isoform P01116-2 G12S): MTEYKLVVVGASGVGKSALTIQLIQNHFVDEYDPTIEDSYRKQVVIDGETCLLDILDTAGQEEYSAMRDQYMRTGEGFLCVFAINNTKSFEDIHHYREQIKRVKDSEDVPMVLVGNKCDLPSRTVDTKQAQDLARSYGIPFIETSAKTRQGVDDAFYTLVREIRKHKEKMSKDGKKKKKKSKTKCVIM

SMILES | IC50 (KRAS G12S) [nM] | IC50 (KRAS WT) [nM]
C[C@H]1COc2c(Cl)c(-c3ccc(F)c4sc(N)c(C#N)c34)c(F)c3nc(OC[C@@]45CCCN4C[C@H](F)C5)nc(c23)N1C[C@@H]1CN(C(=O)n2ccnc2)[C@@H]1C1(C)CC1 (single isomer, unassigned) [Compound 421] | < 500 | 
N#CCC1([C@@H]2[C@H](CN3CCOc4c(Cl)c(-c5ccc(F)c6sc(N)c(C#N)c56)c(F)c5nc(OC[C@@]67CCCN6C[C@H](F)C7)nc3c45)CN2C(=O)n2ccnc2)CC1 [Compound 442, 2-amino-4-(8-chloro-4-(((2S,3R)-2-(1-(cyanomethyl)cyclopropyl)-1-(1H-imidazole-1-carbonyl)azetidin-3-yl)methyl)-10-fluoro-2-(((2R,7aS)-2-fluorotetrahydro-1H-pyrrolizin-7a(5H)-yl)methoxy)-5,6-dihydro-4H-[1,4]oxazepino [5,6,7-de]quinazolin-9-yl)-7-fluorobenzo[b]thiophene-3-carbonitrile] | < 500 | < 500
C[C@@H]1[C@H](N2CCCOc3c(Cl)c(-c4ccc(F)c5sc(N)c(C#N)c45)c(F)c4nc(OC[C@@]56CCCN5C[C@H](F)C6)nc2c34)CCN1C(=O)n1cnc(F)n1 [Compound 448, 2-amino-4-(9-chloro-11-fluoro-4-((2R,3R)-1-(3-fluoro-1H-1,2,4-triazole-1-carbonyl)-2-methylpyrrolidin-3-yl)-2-(((2R,7aS)-2-fluorotetrahydro-1H-pyrrolizin-7a(5H)-yl)methoxy)-4,5,6,7-tetrahydro-[1,5]oxazocino [4,3,2-de]quinazolin-10-yl)-7-fluorobenzo[b]thiophene-3-carbonitrile] | < 500 | < 500
C=CC(=O)N1CC(CN2CCOc3c(Cl)c(-c4ccc(F)c5sc(N)c(C#N)c45)c(F)c4nc(OC[C@@]56CCCN5C[C@H](F)C6)nc2c34)C1 [Compound 466, 4-(4-((1-acryloylazetidin-3-yl)methyl)-8-chloro-10-fluoro-2-(((2R,7aS)-2-fluorotetrahydro-1H-pyrrolizin-7a(5H)-yl)methoxy)-5,6-dihydro-4H-[1,4]oxazepino[5,6,7-de]quinazolin-9-yl)-2-amino-7-fluorobenzo[b]thiophene-3-carbonitrile] | < 500 | < 500
C[C@H](O)[C@H]1COc2c(Cl)c(-c3ccc(F)c4sc(N)c(C#N)c34)c(F)c3nc(OC[C@@]45CCCN4C[C@H](F)C5)nc(c23)N1CC1CN(C(=O)n2ccnc2)C1 [Compound 427, 4-((5R)-4-((1-(1H-imidazole-1-carbonyl)azetidin-3-yl)methyl)-8-chloro-10-fluoro-2-(((2R,7aS)-2-fluorotetrahydro-1H-pyrrolizin-7a(5H)-yl)methoxy)-5-((S)-1-hydroxyethyl)-5,6-dihydro-4H-[1,4]oxazepino [5,6,7-de]quinazolin-9-yl)-2-amino-7-fluorobenzo[b] thiophene-3-carbonitrile] | < 500 | < 500
C[C@@H]1[C@H](N2CCOc3c(Cl)c(-c4ccc(F)c5sc(N)c(C#N)c45)c(F)c4nc(OC[C@@]56CCCN5C[C@H](F)C6)nc2c34)CCN1C(=O)n1cnc(F)n1 (single isomer, unassigned) [Compound 426] | < 500 | < 500
CC#CC(=O)N1CC(CN2CCOc3c(Cl)c(-c4ccc(F)c5sc(N)c(C#N)c45)c(F)c4nc(OC[C@@]56CCCN5C[C@H](F)C6)nc2c34)C1 [Compound 456, 2-amino-4-(4-((1-(but-2-ynoyl)azetidin-3-yl)methyl)-8-chloro-10-fluoro-2-(((2R,7aS)-2-fluorotetrahydro-1H-pyrrolizin-7a (5H)-yl)methoxy)-5,6-dihydro-4H-[1,4]oxazepino[5,6,7-de]quinazolin-9-yl)-7-fluorobenzo[b]thiophene-3-carbonitrile] | < 500 | < 500
N#Cc1c(N)sc2c(F)ccc(-c3c(Cl)c4c5c(nc(OC[C@@]67CCCN6C[C@H](F)C7)nc5c3F)N(CC3CN(C(=O)/C=C/C5CC5)C3)CCO4)c12 [Compound 418, 2-amino-4-(8-chloro-4-((1-((E)-3-cyclopropylacryloyl)azetidin-3-yl)methyl)-10-fluoro-2-(((2R,7aS)-2-fluorotetrahydro-1H-pyrrolizin-7a(5H)-yl)methoxy)-5,6-dihydro-4H-[1,4]oxazepino [5,6,7-de]quinazolin-9-yl)-7-fluorobenzo[b]thiophene-3-carbonitrile] | < 500 | < 500
C/C(C#N)=C\C(=O)N1CC(CN2CCOc3c(Cl)c(-c4ccc(F)c5sc(N)c(C#N)c45)c(F)c4nc(OC[C@@]56CCCN5C[C@H](F)C6)nc2c34)C1 [Compound 439, 2-amino-4-(8-chloro-4-((1-((E)-3-cyanobut-2-enoyl)azetidin-3-yl)methyl)-10-fluoro-2-(((2R,7aS)-2-fluorotetrahydro-1H-pyrrolizin-7a(5H)-yl)methoxy)-5,6-dihydro-4H-[1,4]oxazepino[5,6,7-de]quinazolin-9-yl)-7-fluorobenzo [b]thiophene-3-carbonitrile] | < 500 | < 500
CC(CN(C)C(=O)n1ccnc1)N1c2nc(OC[C@@]34CCCN3C[C@H](F)C4)nc3c(F)c(-c4ccc(F)c5sc(N)c(C#N)c45)c(Cl)c(c23)OC[C@@H]1[C@H](C)O (stereo partly drawn) [Compound 451, N-(2-((5R)-9-(2-amino-3-cyano-7-fluorobenzo[b]thiophen-4-yl)-8-chloro-10-fluoro-2-(((2R,7aS)-2-fluorotetrahydro-1H-pyrrolizin-7a(5H)-yl)methoxy)-5-((S)-1-hydroxyethyl)-5,6-dihydro-4H-[1,4]oxazepino [5,6,7-de]quinazolin-4-yl)propyl)-N-methyl-1H-imidazole-1-carboxamide] | < 500 | 
C[C@H](O)[C@H]1COc2c(Cl)c(-c3ccc(F)c4sc(N)c(C#N)c34)c(F)c3nc(OC[C@@]45CCCN4C[C@H](F)C5)nc(c23)N1C1CC(CN(C)C(=O)n2ccnc2)C1 (stereo partly drawn) [Compound 401, N-((3-((5R)-9-(2-amino-3-cyano-7-fluorobenzo[b]thiophen-4-yl)-8-chloro-10-fluoro-2-(((2R,7aS)-2-fluorotetrahydro-1H-pyrrolizin-7a(5H)-yl)methoxy)-5-((S)-1-hydroxyethyl)-5,6-dihydro-4H-[1,4]oxazepino[5,6,7-de]quinazolin-4-yl)cyclobutyl)methyl)-N-methyl-1H-imidazole-1-carboxamide] | < 500 | 
N#Cc1cn(C(=O)N2CC(CN3CCOc4c(Cl)c(-c5ccc(F)c6sc(N)c(C#N)c56)c(F)c5nc(OC[C@@]67CCCN6C[C@H](F)C7)nc3c45)C2)cn1 [Compound 436, 1-(3-((9-(2-amino-3-cyano-7-fluorobenzo[b]thiophen-4-yl)-8-chloro-10-fluoro-2-(((2R,7aS)-2-fluorotetrahydro-1H-pyrrolizin-7a(5H)-yl)methoxy)-5,6-dihydro-4H-[1,4]oxazepino [5,6,7-de]quinazolin-4-yl)methyl)azetidine-1-carbonyl)-1H-imidazole-4-carbonitrile] | < 500 | 
CN1[C@H](C2CC2)[C@@H]1C(=O)N1CC(CN2CCOc3c(Cl)c(-c4ccc(F)c5sc(N)c(C#N)c45)c(F)c4nc(OC[C@@]56CCCN5C[C@H](F)C6)nc2c34)C1 (stereo partly drawn) [Compound 440, 2-amino-4-(8-chloro-4-((1-((2R,3R)-3-cyclopropyl-1-methylaziridine-2-carbonyl)azetidin-3-yl)methyl)-10-fluoro-2-(((2R,7aS)-2-fluorotetrahydro-1H-pyrrolizin-7a (5H)-yl)methoxy)-5,6-dihydro-4H-[1,4]oxazepino[5,6,7-de]quinazolin-9-yl)-7-fluorobenzo[b]thiophene-3-carbonitrile] | < 500 | 
CC1([C@@H]2[C@H](CN3CCOc4c(Cl)c(-c5ccc(F)c6sc(N)c(C#N)c56)c(F)c5nc(OC[C@@]67CCCN6C[C@H](F)C7)nc3c45)CN2C(=O)n2ccnc2)CC1 [Compound 486, 4-(4-(((2S,3R)-1-(1H-imidazole-1-carbonyl)-2-(1-methylcyclopropyl)azetidin-3-yl)methyl)-8-chloro-10-fluoro-2-(((2R,7aS)-2-fluorotetrahydro-1H-pyrrolizin-7a(5H)-yl)methoxy)-5,6-dihydro-4H-[1,4]oxazepino [5,6,7-de]quinazolin-9-yl)-2-amino-7-fluorobenzo[b] thiophene-3-carbonitrile] | < 500 | 
